This note sets out measurements from patent US20250066350A1, “AROMATIC HETEROCYCLE-SUBSTITUTED COMPOUNDS, AND PREPARATION METHOD THEREFOR AND USE THEREOF” (Innovstone Therapeutics Limited, priority 2021, published 2025).

Bounds are passed on as bounds.

For one experiment, the target named is ATR enzyme (Homo sapiens (Human), UniProt Q13535). The experiment can be described thus: Inhibitory effect on ATR enzyme (HTRF, phospho-P53). To be noted: 90 minutes incubation, 150 nM ATP final; read-out: IC50 for ATR enzyme inhibition. The class given is biochemical. The method, then: Test Example 1. Inhibitory Effect of Compounds of the Present Invention on ATR Enzyme
Chain of ATR enzyme (Q13535 whole entry): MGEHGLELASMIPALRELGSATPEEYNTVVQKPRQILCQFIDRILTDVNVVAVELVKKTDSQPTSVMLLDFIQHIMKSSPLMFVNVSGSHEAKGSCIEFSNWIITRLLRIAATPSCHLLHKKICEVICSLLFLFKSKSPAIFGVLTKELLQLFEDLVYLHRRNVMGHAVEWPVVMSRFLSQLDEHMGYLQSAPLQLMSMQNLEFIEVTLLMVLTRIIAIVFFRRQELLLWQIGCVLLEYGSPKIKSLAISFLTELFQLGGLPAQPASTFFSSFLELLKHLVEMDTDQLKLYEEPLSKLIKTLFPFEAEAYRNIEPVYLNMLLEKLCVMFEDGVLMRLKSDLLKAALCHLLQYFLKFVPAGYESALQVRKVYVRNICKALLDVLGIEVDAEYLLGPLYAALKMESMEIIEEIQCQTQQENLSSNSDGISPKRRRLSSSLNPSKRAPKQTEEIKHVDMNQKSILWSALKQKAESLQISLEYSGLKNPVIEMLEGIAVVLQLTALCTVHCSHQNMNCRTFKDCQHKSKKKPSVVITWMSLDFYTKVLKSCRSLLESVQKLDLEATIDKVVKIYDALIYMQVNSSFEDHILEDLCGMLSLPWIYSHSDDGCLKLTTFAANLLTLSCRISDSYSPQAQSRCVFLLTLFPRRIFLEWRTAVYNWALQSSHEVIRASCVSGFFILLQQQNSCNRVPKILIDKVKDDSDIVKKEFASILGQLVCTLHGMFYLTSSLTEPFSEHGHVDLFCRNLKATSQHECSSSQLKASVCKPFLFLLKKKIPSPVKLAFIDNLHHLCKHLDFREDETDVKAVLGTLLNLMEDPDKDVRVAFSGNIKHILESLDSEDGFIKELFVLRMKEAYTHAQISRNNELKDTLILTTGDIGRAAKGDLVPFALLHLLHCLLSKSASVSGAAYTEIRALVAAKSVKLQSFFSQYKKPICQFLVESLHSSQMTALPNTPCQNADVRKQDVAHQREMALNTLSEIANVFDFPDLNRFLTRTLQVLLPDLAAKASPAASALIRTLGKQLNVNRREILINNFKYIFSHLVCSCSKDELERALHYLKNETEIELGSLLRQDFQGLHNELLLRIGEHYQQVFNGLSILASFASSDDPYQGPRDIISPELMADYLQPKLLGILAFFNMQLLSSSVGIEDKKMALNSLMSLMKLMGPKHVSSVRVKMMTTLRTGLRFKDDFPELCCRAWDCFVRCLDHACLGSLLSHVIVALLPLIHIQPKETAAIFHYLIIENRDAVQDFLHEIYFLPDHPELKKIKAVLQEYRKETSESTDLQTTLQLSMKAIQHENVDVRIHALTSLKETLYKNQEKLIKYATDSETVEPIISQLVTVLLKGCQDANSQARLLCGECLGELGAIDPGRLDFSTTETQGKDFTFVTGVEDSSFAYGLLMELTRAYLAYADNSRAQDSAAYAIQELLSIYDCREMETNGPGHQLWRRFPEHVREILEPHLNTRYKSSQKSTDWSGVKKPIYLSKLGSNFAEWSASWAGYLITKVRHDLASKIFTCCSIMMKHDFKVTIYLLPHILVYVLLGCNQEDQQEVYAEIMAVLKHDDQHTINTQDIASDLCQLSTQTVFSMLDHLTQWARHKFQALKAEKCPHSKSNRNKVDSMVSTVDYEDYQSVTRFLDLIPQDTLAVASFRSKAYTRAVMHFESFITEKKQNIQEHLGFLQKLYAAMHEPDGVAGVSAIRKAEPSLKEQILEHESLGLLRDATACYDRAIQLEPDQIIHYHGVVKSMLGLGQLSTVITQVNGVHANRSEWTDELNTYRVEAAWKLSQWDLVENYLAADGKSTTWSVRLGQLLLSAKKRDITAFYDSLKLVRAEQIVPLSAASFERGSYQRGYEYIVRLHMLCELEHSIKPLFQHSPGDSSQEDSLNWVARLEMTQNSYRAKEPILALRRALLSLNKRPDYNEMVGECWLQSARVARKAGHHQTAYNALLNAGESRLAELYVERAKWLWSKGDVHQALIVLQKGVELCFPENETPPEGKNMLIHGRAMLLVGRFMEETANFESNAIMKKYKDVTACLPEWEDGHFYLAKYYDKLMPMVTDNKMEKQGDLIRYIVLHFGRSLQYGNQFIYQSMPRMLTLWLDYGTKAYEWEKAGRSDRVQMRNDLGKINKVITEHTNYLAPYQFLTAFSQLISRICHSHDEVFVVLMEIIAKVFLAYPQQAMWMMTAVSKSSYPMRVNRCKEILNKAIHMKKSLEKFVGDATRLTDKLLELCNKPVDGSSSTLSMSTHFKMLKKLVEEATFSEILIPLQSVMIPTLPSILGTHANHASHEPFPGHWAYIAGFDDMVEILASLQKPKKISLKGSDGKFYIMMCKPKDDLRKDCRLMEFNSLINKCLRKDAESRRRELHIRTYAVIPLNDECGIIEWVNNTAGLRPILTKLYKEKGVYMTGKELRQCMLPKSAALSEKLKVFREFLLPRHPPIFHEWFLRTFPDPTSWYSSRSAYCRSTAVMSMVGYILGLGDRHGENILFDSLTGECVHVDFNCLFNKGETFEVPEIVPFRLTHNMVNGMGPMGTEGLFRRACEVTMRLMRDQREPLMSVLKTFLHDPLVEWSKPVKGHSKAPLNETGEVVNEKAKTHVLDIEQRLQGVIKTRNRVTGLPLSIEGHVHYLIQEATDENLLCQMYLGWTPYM
Chain of ATR enzyme (Q8WXE1 whole entry partner): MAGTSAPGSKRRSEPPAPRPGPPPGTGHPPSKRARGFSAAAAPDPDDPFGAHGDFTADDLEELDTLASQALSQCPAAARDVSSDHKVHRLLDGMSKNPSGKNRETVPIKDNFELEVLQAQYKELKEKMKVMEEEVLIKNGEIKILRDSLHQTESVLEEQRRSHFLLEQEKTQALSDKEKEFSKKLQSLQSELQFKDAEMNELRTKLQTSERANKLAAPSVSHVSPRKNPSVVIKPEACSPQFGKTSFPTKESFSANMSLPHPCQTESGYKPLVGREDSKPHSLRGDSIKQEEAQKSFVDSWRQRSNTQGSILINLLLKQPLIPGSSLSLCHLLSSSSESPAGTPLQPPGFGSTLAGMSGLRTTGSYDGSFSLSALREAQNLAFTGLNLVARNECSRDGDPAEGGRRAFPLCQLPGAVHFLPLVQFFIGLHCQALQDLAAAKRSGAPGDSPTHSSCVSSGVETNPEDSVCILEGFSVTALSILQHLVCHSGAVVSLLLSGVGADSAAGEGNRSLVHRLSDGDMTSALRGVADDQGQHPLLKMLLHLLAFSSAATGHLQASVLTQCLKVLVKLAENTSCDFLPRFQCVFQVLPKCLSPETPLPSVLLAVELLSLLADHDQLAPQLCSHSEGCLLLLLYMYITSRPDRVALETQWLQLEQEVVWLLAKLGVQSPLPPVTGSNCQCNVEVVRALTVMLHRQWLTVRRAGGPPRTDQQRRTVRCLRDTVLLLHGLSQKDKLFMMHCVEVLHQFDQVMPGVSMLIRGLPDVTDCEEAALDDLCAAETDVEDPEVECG
The following method is used to determine the inhibitory effect of the compounds of the present invention on the ATR enzyme. The experimental method is briefly described as follows:
1. ATR enzyme (Eurofins Pharma Discovery Services, 14-953M)
2. GST-tagged P53 protein (Eurofins Pharma Discovery Services, 14-952M)
15 nM ATR enzyme, 80 nM P53 protein, 300 nM ATP (the final concentrations were 40 nM and 150 nM, respectively), and small molecule compounds of various concentrations (the final concentrations (nM) of the ten points were 2985.0, 895.5, 298.5, 110.56, 33.17, 11.06, 4.09, 1.23, 0.41 and 0.15, respectively, and the final dimethyl sulfoxide concentration was 0.498%) were mixed and incubated at room temperature for 90 minutes. 10 μL of 2× cocktail buffer was added to the mixture of ATR, compound and substrate in the assay plate (anti-phospho-p53-Eu and anti-GST-d2 were diluted in the assay buffer). The resulting mixture was centrifuged at 1000 rpm for 30 seconds, and incubated overnight at 4° C. in the dark (a total of 20 μl in each well). The FRET signal (endpoint) was measured in the Envision instrument (HTRF 665/612 ratio was calculated at 665 nm emission and 612 nm emission). Data were processed using GraphPad software.
The inhibitory activity of the compounds of the present invention on the ATR enzyme can be determined by the test described above, and the measured IC50 values are shown in Table 1.
(TR-FRET usually uses a lanthanide donor and a delayed reading to cut background.)
On to `C[C@@H]1COCCN1c1cc(N2CC(c3ccnn3C)C2)c2cnn(-c3cc[nH]n3)c2n1` [Example 266], for which the IC50 was in the range of 10 to 50 nM.

On to `C[C@@H]1COCCN1c1cc(-c2ccc3c(c2)CCCN3C(=O)c2cccnc2)c2cnn(-c3cc[nH]n3)c2n1` [Example 225], for which the IC50 is at most 10 nM.

For `C[C@@H]1COCCN1c1cc(C#Cc2ccnc3[nH]ccc23)c2cnn(-c3cc[nH]n3)c2n1` [Example 77], the IC50 was 10 to 50 nM.

For `C[C@@H]1COCCN1c1cc(C#CC2(O)COC2)c2cnn(-c3cc[nH]n3)c2n1` [Example 84], the IC50 was at most 10 nM.

In the case of `C#CC1CCC(c2cc(N3CCOC[C@H]3C)nc3c2cnn3-c2ccn[nH]2)CC1` (stereo partly drawn) [Example 202, (R)-4-(4-(4-ethynylcyclohexyl)-1-(1H-pyrazol-5-yl)-1H-pyrazolo[3,4-b]pyridin-6-yl)-3-methylmorpholine], the IC50 is at most 10 nM.

For `C[C@@H]1COCCN1c1cc(-c2ccc(NC(=O)NC3CC4CCC(C3)N4)cc2)c2cnn(-c3cc[nH]n3)c2n1` (stereo partly shown) [Example 231], the IC50 was at most 10 nM.

As to `C[C@@H]1COCCN1c1cc(C#CC(=O)N2CC(O)C2)c2cnn(-c3cc[nH]n3)c2n1` [Example 86], the IC50 lay in the range of 10 to 50 nM.

In the case of `C[C@@H]1COCCN1c1cc(-c2cc(NC(=O)C3CC3)[nH]n2)c2cnn(-c3cc[nH]n3)c2n1` [Example 253], the IC50 was in the range of 10 to 50 nM.

As for `C[C@@H]1COCCN1c1cc(C#CC2CCCOC2)c2cnn(-c3ccn[nH]3)c2n1` (stereo partly shown) [Example 210], the IC50 was at most 10 nM.

Regarding `CC(=O)N1CCC(C#Cc2cc(N3CCOC[C@H]3C)nc3c2cnn3-c2cc[nH]n2)C1` (stereo partly shown) [Example 80], the IC50 is 10 to 50 nM.

`C#CC1CCC(O)(c2cc(N3CCOC[C@H]3C)nc3c2cnn3-c2cc[nH]n2)C1` (stereo partly shown) [Example 270]: the IC50 was at most 10 nM.

On to `C[C@@H]1COCCN1c1cc(C#CC2(O)CCC3(CCOCC3)CC2)c2cnn(-c3ccn[nH]3)c2n1` [Compound 14, (R)-9-((6-(3-methylmorpholinyl)-1-(1H-pyrazol-5-yl)-1H-pyrazole[3,4-b]pyridin-4-yl)ethynyl)-3-oxaspiro[5.5]undecan-9-ol], for which the IC50 was 10 to 50 nM.

In the case of `C[C@@H]1COCCN1c1cc(C2CN(c3ccnn3C)C2)c2cnn(-c3cc[nH]n3)c2n1` [Example 269], the IC50 was at most 10 nM.

On to `C[C@@H]1COCCN1c1cc(-c2ccc(N3CC4(CCN(Cc5ccccc5)C4)CC3=O)cc2)c2cnn(-c3cc[nH]n3)c2n1` (stereo partly shown) [Example 203], for which the IC50 is at most 10 nM.

For `C[C@@H]1COCCN1c1cc(-c2ccc(NC(=O)C34CC5CC(CC(C5)C3)C4)cc2)c2cnn(-c3cc[nH]n3)c2n1` [Example 232], the IC50 lay in the range of 10 to 50 nM.

For `CC(=O)Nc1ccccc1-c1cc(N2CCOC[C@H]2C)nc2c1cnn2-c1cc[nH]n1` [Example 220], the IC50 was in the range of 10 to 50 nM.

For `COc1cc(-c2cc(N3CCOC[C@H]3C)nc3c2cnn3-c2cc[nH]n2)ncc1NC(=O)N1CCCC1` [Example 247], the IC50 fell in the range of 10 to 50 nM.

`C[C@@H]1COCCN1c1cc(-c2ccc(N(C)C(=O)N3CCCC3)cc2F)c2cnn(-c3cc[nH]n3)c2n1` [Example 192]: the IC50 was at most 10 nM.

As to `C[C@@H]1COCCN1c1cc(-c2ccc(N(C)C(=O)N3CCCCC3)cc2)c2cnn(-c3cc[nH]n3)c2n1` [Example 230], the IC50 was 10 to 50 nM.

Take `C[C@@H]1COCCN1c1cc(-c2ccc(N(C)C(=O)N3CCCC3)nc2)c2cnn(-c3cc[nH]n3)c2n1` [Example 227]: the IC50 fell in the range of 10 to 50 nM.

With `C[C@@H]1COCCN1c1cc(C#CCN2CC3(CNC3)C2)c2cnn(-c3cc[nH]n3)c2n1` [Example 205], the IC50 lay in the range of 10 to 50 nM.

As to `COc1cc(NC(=O)N2CCCC2)ncc1-c1cc(N2CCOC[C@H]2C)nc2c1cnn2-c1cc[nH]n1` [Example 248], the IC50 lay in the range of 10 to 50 nM.

As for `C[C@@H]1COCCN1c1cc(-c2ccc(NC(=O)N3CCCCC3)cc2)c2cnn(-c3cc[nH]n3)c2n1` [Example 229], the IC50 is at most 10 nM.

For the molecule `C[C@@H]1COCCN1c1cc(-c2ccc(N(C)C(=O)N3CCCC3)cc2)c2cnn(-c3cc[nH]n3)c2n1` [Example 223], the IC50 is at most 10 nM.

Regarding `Cc1cc(-c2cc(N3CCOC[C@H]3C)nc3c2cnn3-c2ccn[nH]2)cc(C)c1N(C)C(=O)c1ccncc1` [Example 184], the IC50 was at most 10 nM.

Regarding `C[C@@H]1COCCN1c1cc(C#Cc2c[nH]cn2)c2cnn(-c3cc[nH]n3)c2n1` [Example 78], the IC50 was at most 10 nM.

`C[C@@H]1COCCN1c1cc(-c2ccc(NC(=O)CCO)cc2)c2cnn(-c3cc[nH]n3)c2n1` [Example 152]: the IC50 is at most 10 nM.

With `C[C@@H]1COCCN1c1cc(-c2ccc(N3CCCC3=O)cc2)c2cnn(-c3cc[nH]n3)c2n1` [Example 212], the IC50 is at most 10 nM.

As to `C[C@@H]1COCCN1c1cc(N2CC(c3ccn(C)n3)C2)c2cnn(-c3cc[nH]n3)c2n1` [Example 267], the IC50 is 10 to 50 nM.

Turning to `C#CC1CC=C(c2cc(N3CCOC[C@H]3C)nc3c2cnn3-c2cc[nH]n2)CC1` (stereo partly shown) [Example 201], the IC50 is at most 10 nM.

For `C[C@@H]1COCCN1c1cc(C#CC2(O)CCN(c3cccc(F)c3)CC2)c2cnn(-c3ccn[nH]3)c2n1` [Compound 12, (R)-1-(3-fluorophenyl)-4-((6-(3-methylmorpholinyl)-1-(1H-pyrazolyl-5-yl)-1H-pyrazolyl[3,4-b]pyridin-4-yl)ethynyl)piperidin-4-ol], the IC50 lay within 10 to 50 nM.

For `C[C@@H]1COCCN1c1cc(C#CCN(C)C)c2cnn(-c3cc[nH]n3)c2n1` [Example 18, (R)-N, N-Dimethyl-3-(6-(3-methylmorpholine)-1-(1H-pyrazol-3-yl)-1H-pyrazoline[3,4-b]pyridin-4-yl)propyl-2-yn-1-amine], the IC50 lay within 10 to 50 nM.

For the molecule `C[C@@H]1COCCN1c1cc(-c2ccc(NC(=O)N3CCCC3)cn2)c2cnn(-c3cc[nH]n3)c2n1` [Example 249], the IC50 was at most 10 nM.

In the case of `C[C@@H]1COCCN1c1cc(C2CN(C(=O)NC3CC3)C2)c2cnn(-c3cc[nH]n3)c2n1` [Example 268], the IC50 was in the range of 10 to 50 nM.

With `C[C@@H]1COCCN1c1cc(-c2ccc(NC(=O)C3CNC3)cc2)c2cnn(-c3cc[nH]n3)c2n1` [Example 156], the IC50 is at most 10 nM.

With `C#Cc1cc(N2CCOC[C@H]2C)nc2c1cnn2-c1cc[nH]n1` [Example 17], the IC50 was 10 to 50 nM.

As for `C[C@@H]1COCCN1c1cc(-c2ccc(N3C(=O)CCCC3CO)cc2)c2cnn(-c3cc[nH]n3)c2n1` (stereo partly shown) [Example 60], the IC50 is at most 10 nM.

A further experiment relates to SNU-601 cells. The experiment is described as follows: SNU-601 cell proliferation experiment (CellTiter-Glo, intracellular ATP). Conditions: 120 h; SNU-601 human gastric cancer cells, 5 days; read-out: IC50 for inhibition of SNU-601 cell proliferation. The class given is cell-based. As for the experimental part:
The following method is used to evaluate the inhibitory effect of the compounds of the present disclosure on SNU-601 cell proliferation according to the IC50 values by means of detecting the intracellular ATP content. The experimental method is briefly described as follows:
1. SNU-601, human gastric cancer tumor cells (Co-bioer, CBP60507)
SNU-601 cells were cultured in RPMI 1640 medium containing 10% FBS and passaged 2 to 3 times a week at a split ratio of 1:5 or 1:10. During passage, the cells were trypsinized and transferred to a centrifuge tube. The tube was centrifuged at 1000 rpm for 5 minutes, the supernatant medium was discarded, and fresh medium was added to resuspend the cells. 195 μL of cell suspension at a density of 5.128×10^3 cells/mL was added to a 96-well cell culture plate, and 200 μL of complete medium only was added to the periphery wells of the 96-well plate. The culture plate was incubated in an incubator for 24 hours (37° C., 5% CO2).
The sample to be tested was diluted to 2 mM with DMSO, diluted 3-fold serially to 10 concentrations. Blank and control wells were set. 10 μL of the solution containing the compound to be tested prepared in gradient concentrations was added to 50 μL of fresh medium. 5 μL of the above culture medium solution containing the compound was added to the culture plate. The culture plate was incubated in an incubator for 5 days (37° C., 5% CO2). 50 μL of CellTiter-Glo reagent was added to each well of the 96-well cell culture plate after discarding 100 μL/well, and the plate was shaken at room temperature in the dark for 10 min. The chemiluminescent signal values were read in PHERAstar, and data were processed using GraphPad software.
The inhibitory effect of the compounds of the present invention on SNU-601 cell proliferation can be determined by the test described above, and the measured IC50 values are shown in Table 3.
On to `C[C@@H]1COCCN1c1cc(-c2ccc(NC(=O)C3CCOCC3)cc2)c2cnn(-c3cc[nH]n3)c2n1` [Example 155], for which the IC50 was 10 to 100 nM.

Turning to `C[C@@H]1COCCN1c1cc(-c2ccc(N3CCCCC3=O)cc2C(F)(F)F)c2cnn(-c3cc[nH]n3)c2n1` [Example 242], the IC50 was 10 to 100 nM.

On to `C[C@@H]1COCCN1c1cc(-c2ccc(NC(=O)N3CCCC3)cc2)c2cnn(-c3cc[nH]n3)c2n1` [Example 207], for which the IC50 was in the range of 10 to 100 nM.

For `CCC(CC)C(=O)Nc1ccc(-c2cc(N3CCOC[C@H]3C)nc3c2cnn3-c2cc[nH]n2)cc1` [Example 151], the IC50 was 10 to 100 nM.

On to `C[C@@H]1COCCN1c1cc(-c2ccc(NC(=O)c3ccncn3)cc2)c2cnn(-c3cc[nH]n3)c2n1` [Example 165], for which the IC50 was 10 to 100 nM.

Take `C[C@@H]1COCCN1c1cc(-c2ccc(N3CC4CCC(O4)C3=O)cc2)c2cnn(-c3cc[nH]n3)c2n1` (stereo partly shown) [Example 65]: the IC50 lay in the range of 10 to 100 nM.

Consider `C[C@@H]1COCCN1c1cc(-c2ccc(NC(=O)c3cccnc3)cc2F)c2cnn(-c3cc[nH]n3)c2n1` [Example 195], for which the IC50 lay within 10 to 100 nM.

For the molecule `C[C@@H]1COCCN1c1cc(-c2ccc(N3CC4CCC(O4)C3=O)cc2F)c2cnn(-c3cc[nH]n3)c2n1` (stereo partly shown) [Example 199], the IC50 was in the range of 10 to 100 nM.

Take `C[C@@H]1COCCN1c1cc(-c2ccc(N3CCCCC3=O)nc2)c2cnn(-c3cc[nH]n3)c2n1` [Example 167]: the IC50 is 10 to 100 nM.
